Organism: Rattus norvegicus
Assay: DrugMatrix - Regimen: Daily Repeat
Type: toxicity, organism-based, Sprague-Dawley
Design: regimen Daily Repeat, gender Male, age 6-8 weeks
Details: in vivo, po, route oral GAVAGE, […]; for ABSOLUTE BASOPHIL / ABSOLUTE EOSINOPHIL / ABSOLUTE LYMPHOCYTE / ABSOLUTE MONOCYTE / ABSOLUTE SEGMENTED NEUTROPHIL / BASOPHIL / EOSINOPHIL / ERYTHROCYTE COUNT / HEMATOCRIT / HEMOGLOBIN / LEUKOCYTE COUNT / LYMPHOCYTE / MEAN CORPUSCULAR HEMOGLOBIN / MEAN CORPUSCULAR HEMOGLOBIN CONCENTRATION / MEAN CORPUSCULAR VOLUME / MONOCYTE / NEUTROPHIL / NUCLEATED RED BLOOD CELLS / PLATELET COUNT: tissue Blood; for ALANINE AMINOTRANSFERASE / ALBUMIN / ALKALINE PHOSPHATASE / ASPARTATE AMINOTRANSFERASE / BLOOD UREA NITROGEN / CARBON DIOXIDE / CHLORIDE / CHOLESTEROL / CREATINE PHOSPHOKINASE / CREATININE / GLUCOSE / LACTATE DEHYDROGENASE / LIPASE / PHOSPHORUS / POTASSIUM / SODIUM / TOTAL BILIRUBIN / TOTAL PROTEIN / URIC ACID: tissue Plasma
[1] = 0.05 mg/kg, 120 h, dose level Low, time 5 day
[2] = 7 mg/kg, 72 h, dose level High, time 3 day
[3] = 7 mg/kg, 120 h, dose level High, time 5 day

COCc1c(C(C)C)nc(C(C)C)c(/C=C/[C@@H](O)C[C@@H](O)CC(=O)O)c1-c1ccc(F)cc1 [CERIVASTATIN]
ABSOLUTE BASOPHIL [1]: 0 CELLS/uL | ABSOLUTE EOSINOPHIL [1]: 39 CELLS/uL | ABSOLUTE LYMPHOCYTE [1]: 10187.67 CELLS/uL | ABSOLUTE MONOCYTE [1]: 164.67 CELLS/uL | ABSOLUTE SEGMENTED NEUTROPHIL [1]: 875.33 CELLS/uL | BASOPHIL [1]: 0% | EOSINOPHIL [1]: 0.33% | ERYTHROCYTE COUNT [1]: 5.9 x10E6/uL | HEMATOCRIT [1]: 36.4% | HEMOGLOBIN [1]: 13.87 G/DL | LEUKOCYTE COUNT [1]: 11.27 x10E3/uL | LYMPHOCYTE [1]: 90.33% | MEAN CORPUSCULAR HEMOGLOBIN [1]: 23.53 pg | MEAN CORPUSCULAR HEMOGLOBIN CONCENTRATION [1]: 38.1 G/DL | MEAN CORPUSCULAR VOLUME [1]: 61.73 fL | MONOCYTE [1]: 1.33% | NEUTROPHIL [1]: 8% | NUCLEATED RED BLOOD CELLS [1]: 0 /100WBC | PLATELET COUNT [1]: 1545 x10E3/uL | ALANINE AMINOTRANSFERASE [1]: 66.33 u/L | ALBUMIN [1]: 4.1 G/DL | ALKALINE PHOSPHATASE [1]: 440.67 u/L | ASPARTATE AMINOTRANSFERASE [1]: 90 u/L | BLOOD UREA NITROGEN [1]: 14.67 mg/dL | CARBON DIOXIDE [1]: 32 mmol/L | CHLORIDE [1]: 101 MEQ/L | CHOLESTEROL [1]: 63.67 mg/dL | CREATINE PHOSPHOKINASE [1]: 453 u/L | CREATININE [1]: 0.19 mg/dL | GLUCOSE [1]: 143.33 mg/dL | LACTATE DEHYDROGENASE [1]: 112.33 u/L | LIPASE [1]: 11.33 u/L | PHOSPHORUS [1]: 10.8 mg/dL | POTASSIUM [1]: 6.11 MEQ/L | SODIUM [1]: 144.4 MEQ/L | TOTAL BILIRUBIN [1]: 0.17 mg/dL | TOTAL PROTEIN [1]: 5.87 G/DL | URIC ACID [1]: 1.37 mg/dL | ABSOLUTE BASOPHIL [2]: 0 CELLS/uL | ABSOLUTE EOSINOPHIL [2]: 0 CELLS/uL | ABSOLUTE LYMPHOCYTE [2]: 7320 CELLS/uL | ABSOLUTE MONOCYTE [2]: 110 CELLS/uL | ABSOLUTE SEGMENTED NEUTROPHIL [2]: 1470 CELLS/uL | BASOPHIL [2]: 0% | EOSINOPHIL [2]: 0% | ERYTHROCYTE COUNT [2]: 6.07 x10E6/uL | HEMATOCRIT [2]: 37.7% | HEMOGLOBIN [2]: 14.3 G/DL | LEUKOCYTE COUNT [2]: 8.9 x10E3/uL | LYMPHOCYTE [2]: 81.67% | MEAN CORPUSCULAR HEMOGLOBIN [2]: 23.6 pg | MEAN CORPUSCULAR HEMOGLOBIN CONCENTRATION [2]: 37.93 G/DL | MEAN CORPUSCULAR VOLUME [2]: 62.2 fL | MONOCYTE [2]: 1.33% | NEUTROPHIL [2]: 17% | NUCLEATED RED BLOOD CELLS [2]: 0 /100WBC | PLATELET COUNT [2]: 1276.33 x10E3/uL | ALANINE AMINOTRANSFERASE [2]: 401.33 u/L | ALBUMIN [2]: 4.23 G/DL | ALKALINE PHOSPHATASE [2]: 440.67 u/L | ASPARTATE AMINOTRANSFERASE [2]: 730.67 u/L | BLOOD UREA NITROGEN [2]: 14.33 mg/dL | CARBON DIOXIDE [2]: 34.67 mmol/L | CHLORIDE [2]: 99.33 MEQ/L | CHOLESTEROL [2]: 65.33 mg/dL | CREATINE PHOSPHOKINASE [2]: 536.67 u/L | CREATININE [2]: 0.21 mg/dL | GLUCOSE [2]: 138.33 mg/dL | LACTATE DEHYDROGENASE [2]: 823 u/L | LIPASE [2]: 11.33 u/L | PHOSPHORUS [2]: 10.17 mg/dL | POTASSIUM [2]: 6.19 MEQ/L | SODIUM [2]: 145.1 MEQ/L | TOTAL BILIRUBIN [2]: 0.13 mg/dL | TOTAL PROTEIN [2]: 5.9 G/DL | URIC ACID [2]: 1.17 mg/dL | ABSOLUTE BASOPHIL [3]: 0 CELLS/uL | ABSOLUTE EOSINOPHIL [3]: 0 CELLS/uL | ABSOLUTE LYMPHOCYTE [3]: 5700.67 CELLS/uL | ABSOLUTE MONOCYTE [3]: 483.33 CELLS/uL | ABSOLUTE SEGMENTED NEUTROPHIL [3]: 1949.33 CELLS/uL | BASOPHIL [3]: 0% | EOSINOPHIL [3]: 0% | ERYTHROCYTE COUNT [3]: 6.32 x10E6/uL | HEMATOCRIT [3]: 41% | HEMOGLOBIN [3]: 15.23 G/DL | LEUKOCYTE COUNT [3]: 8.13 x10E3/uL | LYMPHOCYTE [3]: 68.33% | MEAN CORPUSCULAR HEMOGLOBIN [3]: 24.1 pg | MEAN CORPUSCULAR HEMOGLOBIN CONCENTRATION [3]: 37.17 G/DL | MEAN CORPUSCULAR VOLUME [3]: 64.93 fL | MONOCYTE [3]: 5.67% | NEUTROPHIL [3]: 26% | NUCLEATED RED BLOOD CELLS [3]: 0 /100WBC | PLATELET COUNT [3]: 1312.67 x10E3/uL | ALANINE AMINOTRANSFERASE [3]: 247.33 u/L | ALBUMIN [3]: 3.9 G/DL | ALKALINE PHOSPHATASE [3]: 548.33 u/L | ASPARTATE AMINOTRANSFERASE [3]: 624.67 u/L | BLOOD UREA NITROGEN [3]: 19 mg/dL | CARBON DIOXIDE [3]: 35.67 mmol/L | CHLORIDE [3]: 93 MEQ/L | CHOLESTEROL [3]: 85 mg/dL | CREATINE PHOSPHOKINASE [3]: 915.67 u/L | CREATININE [3]: 0.27 mg/dL | GLUCOSE [3]: 124.33 mg/dL | LACTATE DEHYDROGENASE [3]: 295 u/L | LIPASE [3]: 13 u/L | PHOSPHORUS [3]: 8 mg/dL | POTASSIUM [3]: 5.51 MEQ/L | SODIUM [3]: 142.73 MEQ/L | TOTAL BILIRUBIN [3]: 0.13 mg/dL | TOTAL PROTEIN [3]: 6.1 G/DL | URIC ACID [3]: 0.87 mg/dL
